Source: patent US12152087B2, “Deuterated melflufen compounds” (Oncopeptides AB, priority 2018, dated 2024)
Structures can show the parent of a compound that is named as a salt. Where two headings read alike, the source gives them in different places.

How the values were obtained:
[1] = Comparative single dose toxicokinetic study in dogs, 30 minutes intravenous infusion; type: in vivo, beagle dogs; conditions: for half-life / AUC(0-t) / Tmax / Cmax: beagle, dog; for half-life / AUC(0-t) / Tmax / Cmax / Tlast: plasma; for half-life: intravenous, estimable in one animal only, read-out: half-life; for AUC(0-t) / Tmax / Cmax: iv; for AUC(0-t) / Tmax / Cmax / Tlast: mean, labelled analyte; for Cmax: read-out: Cmax; for increase of systemic exposure with increasing doses, assuming dose proportionality: increasing doses of melflufen-d5 (III) infusion (1.25 and 2.5 mg/kg)
Description: A comparative single dose toxicity study in dogs was carried out, comparing melflufen-d5 (III) and melflufen to investigate the toxicokinetics of melflufen and melflufen-d5 (III) and their metabolites, desethyl-melflufen and melphalan, after a single intravenous administration of melflufen-d5 (III) or melflufen as 30 minutes infusion in the dog.
This study aimed to compare the potential acute toxicity of melflufen-d5 (III) and melflufen. The toxicokinetics of melflufen-d5 (III), melflufen and their metabolites desethyl-melflufen and melphalan were evaluated after a single intravenous administration as 30 minutes infusion in dogs.
Melflufen-d5 (III) or melflufen were given as 30 minutes infusion to male and female dogs according to the following scheme:
Blood samples were collected from peripheral vein on Day 1 at pre-dose, 15 min, 30 min (just prior to end of infusion), 40 min, 1 h, 2 h, 4 h and 6 h after the start of infusion).
Blood samples were collected into heparinized collection tubes, put in an ice-water bath and immediately centrifuged (3 minutes, 10000 g, +4° C.). The obtained plasma was divided into two aliquots, placed into pre-chilled cryovials and in a freezer at −70° C. until analysis.
Toxicokinetic Calculations Plasma toxicokinetic analyses for melflufen-d5 (III), melflufen and their metabolites, desethyl-melflufen and melphalan were performed according to standard non-compartmental approach using Phoenix WinNonlin system (v. 6.3, Certara Company, USA).
After administration, Cmax, maximum concentration, and Tmax, time at which the maximum concentration was achieved, were read as the coordinates of the highest plasma concentration of the time course. Clast, last detectable concentration, and Tlast, time of the last detectable concentration, were reported as parameters.
The area under plasma concentration vs. time curve up to the last detectable concentration, AUClast, was calculated by the linear trapezoidal rule.
t1/2,z, the half-life of the terminal phase, was calculated by linear regression analysis of the natural-log concentration vs. time curve according to the formula: […]
AUC∞ the area under plasma concentration vs. time curve up to infinite time, was calculated by adding the portion of the area calculated as Clast/λz to AUClast assuming mono-exponential decay.

[2] = system: primary cultures of human tumour cells; conditions: panels of primary cultures of human tumour cells; cited from earlier work
[3] = 2-fold melflufen-d5 (III) dose increase (1.25 to 2.5 mg/kg), combined genders
[4] = both sexes, 1.25 mg/kg, group 2: melflufen-d5 (III) 1.25 mg/kg 30 min infusion, M + F combined
[5] = both sexes, 2.5 mg/kg, group 3: melflufen-d5 (III) 2.5 mg/kg 30 min infusion, M + F combined
[6] = both sexes, 2.5 mg/kg, group 4: melflufen 2.5 mg/kg 30 min infusion, M + F combined
[7] = female, 1.25 mg/kg, group 2: melflufen-d5 (III) 1.25 mg/kg 30 min infusion, females
[8] = female, 2.5 mg/kg, group 3: melflufen-d5 (III) 2.5 mg/kg 30 min infusion, females
[9] = female, 2.5 mg/kg, group 4: melflufen 2.5 mg/kg 30 min infusion, females
[10] = male, 1.25 mg/kg, group 2: melflufen-d5 (III) 1.25 mg/kg 30 min infusion, males
[11] = male, 2.5 mg/kg, group 3: melflufen-d5 (III) 2.5 mg/kg 30 min infusion, males
[12] = male, 2.5 mg/kg, group 4: melflufen 2.5 mg/kg 30 min infusion, males
[13] = group 2: melflufen-d5 (III) 1.25 mg/kg 30 min infusion, M + F combined
[14] = group 2: melflufen-d5 (III) 1.25 mg/kg 30 min infusion, females
[15] = group 2: melflufen-d5 (III) 1.25 mg/kg 30 min infusion, males
[16] = group 3: melflufen-d5 (III) 2.5 mg/kg 30 min infusion, M + F combined
[17] = group 3: melflufen-d5 (III) 2.5 mg/kg 30 min infusion, females
[18] = group 3: melflufen-d5 (III) 2.5 mg/kg 30 min infusion, males
[19] = group 4: melflufen 2.5 mg/kg 30 min infusion, M + F combined
[20] = group 4: melflufen 2.5 mg/kg 30 min infusion, females
[21] = group 4: melflufen 2.5 mg/kg 30 min infusion, males

## N[C@@H](Cc1ccc(N(CCCl)CCCl)cc1)C(=O)N[C@@H](Cc1ccc(F)cc1)C(=O)O [desethyl-melflufen, (2S)-2-[[(2S)-2-amino-3-[4-[bis(2-chloroethyl)amino]phenyl]propanoyl]amino]-3-(4-fluorophenyl)propanoic acid]
[1]; [3]
  increase of AUClast of the metabolite with dose: 3.5 fold
  increase of Cmax of the metabolite with dose: 3.1 fold
[1]; after melflufen-d5 (III) infusion
  exposure relative to the parent compound exposure: about one-half
[1]; 2.5 mg/kg, after melflufen 2.5 mg/kg (group 4)
  half-life: 7 min
[1]; 2.5 mg/kg, after melflufen-d5 (III) 2.5 mg/kg
  half-life: 5 min
[1]; [4]
  AUC(0-t): 0.0144 µM·h
  Tmax: 30 min
  Cmax: 33.2 nM
[1]; [5]
  AUC(0-t): 0.0506 µM·h
  Tmax: 27.5 min
  Cmax: 102 nM
[1]; [6]
  AUC(0-t): 0.0325 µM·h
  Tmax: 27.5 min
  Cmax: 71.4 nM
[1]; each at 2.5 mg/kg
  average exposure to the metabolite after infusion of melflufen compared with after infusion of melflufen-d5 (III): lower
[1]; [7]
  AUC(0-t): 0.0132 µM·h
  Tmax: 30 min
  Cmax: 30.8 nM
[1]; [8]
  AUC(0-t): 0.0358 µM·h
  Tmax: 30 min
  Cmax: 70.3 nM
[1]; [9]
  AUC(0-t): 0.0287 µM·h
  Tmax: 25 min
  Cmax: 60.5 nM
[1]
  increase of systemic exposure with increasing doses, assuming dose proportionality: slightly more than expected
[1]; labelled metabolite after 1.25-2.5 mg/kg melflufen-d5 (III) infusion
  no longer detectable after, post-dosing: 40 to 60 min
[1]; labelled metabolite after 1.25 and 2.5 mg/kg melflufen-d5 (III) infusion (groups 2 and 3)
  time of maximal plasma concentration: 15 to 30 min
[1]; [10]
  AUC(0-t): 0.0155 µM·h
  Tmax: 30 min
  Cmax: 35.6 nM
[1]; [11]
  AUC(0-t): 0.0655 µM·h
  Tmax: 25 min
  Cmax: 134 nM
[1]; [12]
  AUC(0-t): 0.0363 µM·h
  Tmax: 30 min
  Cmax: 82.2 nM
[1]; [13]
  Tlast: 0.667 h
[1]; [14]
  Tlast: 0.667 h
[1]; [15]
  Tlast: 0.667 h
[1]; [16]
  Tlast: 1.00 h
[1]; [17]
  Tlast: 1.00 h
[1]; [18]
  Tlast: 1.00 h
[1]; [19]
  Tlast: 0.945 h
[1]; [20]
  Tlast: 0.889 h
[1]; [21]
  Tlast: 1.00 h

## CCOC(=O)[C@H](Cc1ccc(F)cc1)NC(=O)[C@@H](N)Cc1ccc(N(CCCl)CCCl)cc1 [melflufen, L-Melphalanyl-4-fluoro-L-phenylalanine ethyl ester]
[1]; [6]
  AUC(0-t): 0.0433 µM·h
  Tmax: 20 min
  Cmax: 144 nM
[1]; each at 2.5 mg/kg (group 4 vs group 3)
  average exposure to melflufen, fold lower than that to melflufen-d5 (III): 2 fold
[1]; [9]
  AUC(0-t): 0.0539 µM·h
  Tmax: 25 min
  Cmax: 163 nM
[1]; [12]
  AUC(0-t): 0.0326 µM·h
  Tmax: 15 min
  Cmax: 124 nM
[1]; [19]
  Tlast: 0.500 h
[1]; [20]
  Tlast: 0.500 h
[1]; [21]
  Tlast: 0.500 h
[1]; melflufen infused for 30 minutes at 2.5 mg/kg (group 4)
  time of peak in plasma: 15 to 30 min
[2]
  efficacy, fold higher than melphalan: 50 to 100 fold

## [2H]C([2H])([2H])C([2H])([2H])OC(=O)C(Cc1ccc(F)cc1)NC(=O)C(N)Cc1ccc(N(CCCl)CCCl)cc1 [melflufen-d5 (III), (^2H5)ethyl (2S)-2-[(2S)-2-amino-3-{4-[bis(2-chloroethyl)amino]phenyl}propanamido]-3-(4-fluorophenyl)propanoate hydrochloride]
[1]; 2.5 vs 1.25 mg/kg melflufen-d5 (III) (2-fold dose increase), combined gender parameters
  increase of exposure with the dose in terms of peak and area under the curve: 2.7 fold
[1]; [4]
  AUC(0-t): 0.0336 µM·h
  Tmax: 22.5 min
  Cmax: 98.5 nM
[1]; [5]
  AUC(0-t): 0.0902 µM·h
  Tmax: 22.5 min
  Cmax: 253 nM
[1]; equivalent doses
  exposure after infusion of melflufen-d5 (III) compared to melflufen: consistently higher
[1]; [7]
  AUC(0-t): 0.0296 µM·h
  Tmax: 30 min
  Cmax: 99.3 nM
[1]; [8]
  AUC(0-t): 0.0564 µM·h
  Tmax: 20 min
  Cmax: 159 nM
[1]
  increase of systemic exposure with increasing doses, assuming dose proportionality: slightly more than expected
[1]; [10]
  AUC(0-t): 0.0377 µM·h
  Tmax: 15 min
  Cmax: 97.7 nM
[1]; [11]
  AUC(0-t): 0.124 µM·h
  Tmax: 25 min
  Cmax: 346 nM
[1]; [13]
  Tlast: 0.528 h
[1]; [14]
  Tlast: 0.50 h
[1]; [15]
  Tlast: 0.556 h
[1]; [16]
  Tlast: 0.611 h
[1]; [17]
  Tlast: 0.611 h
[1]; [18]
  Tlast: 0.611 h
[1]; melflufen-d5 (III) infused for 30 minutes at 1.25 and 2.5 mg/kg (groups 2 and 3)
  disappeared from plasma, time from start of dosing: ≤ 40 min
